From patent publication US12723233B2, “Media and methods for differentiating natural killer cells” (STEMCELL Technologies Canada Inc., priority 2018, dated 2026)

Experiments:
Type in all cases: cell-based, Human
[1] = test system: PSC-derived NK cell progenitors; assay: Differentiation of PSC-derived NK cell progenitors to CD56+ cells; details: PSC lines 1C, M001, H1, F016; UM729 during days 24 to 38
Procedure: Three induced pluripotent stem cell (iPSC) lines—WLS-1C, STiPSC M001, and STiPS F016—and one embryonic stem cell (ESC) line—H1 were maintained in mTeSR™ 1. The PSC were harvested and dissociated using accutase into single cell suspensions and were filtered using 37 μm reversible strainer (STEMCELL Technologies).
Single cell suspensions of PSC were seeded into AggreWell plates (STEMCELL Technologies) to form 500-cell aggregates. The seeded cells were cultured in a mesoderm differentiation medium and 10 μM Y027632 (STEMCELL Technologies). After 3 days (i.e. on day 3) in culture the medium was changed to induce hematopoietic lineage differentiation. After 7 days (i.e. on day 10) in culture the aggregates were harvested and dissociated using collagenase II and a trypsin-containing solution.
Dissociated cells were enriched for CD34^+ cells using EasySep™ Human CD34 Positive Selection Kit II (STEMCELL Technologies, catalogue #17856). […]
The cells were stained for CD56 essentially as described in Example 3 and analyzed for frequency of CD56^+ cells and yield of CD56^+ cells per 5×10^4 input PSC-derived CD34^+ cells. […]

PSC-derived CD34+ cells = assay: Differentiation of PSC-derived CD34+ cells into CD5+CD7+ NK cell progenitors; details: 1 μM UM729 during days 10 to 24; PSC lines 1C, M001, H1, F016
Procedure: PSC-derived […] cells were generated as described in Example 11. The PSC-derived […] cells were cultured as described in Example 11, except the effect of the presence or absence of 1 μM UM729 on the differentiation of a population of NK cell progenitors was assessed. The cells were stained for CD5 and CD7 essentially as described in Example 3 and analyzed for frequency of CD5^+CD7^+ cells and yield of CD5^+CD7^+ cells per 5×10^4 input PSC-derived […] cells. Both the frequency (FIG. 15A) and yield (FIG. 15B) of CD5^+CD7^+ cells decreased after culturing the PSC-derived […] cells in the presence of UM729, as compared to culturing such cells in the absence of UM729. Therefore, the presence of UM729 during days 10 to 24 of culturing PSC-derived […] cells decreases the frequency and yield of CD5^+CD7^+ NK progenitor cells.

NK cell progenitors = assay: Differentiation of cord blood CD34+-derived NK cell progenitors to CD56+ NK cells (culture days 14-28), flow cytometry and cell counts
Procedure: Human CB samples were obtained from Bloodworks NW (Seattle, WA) and CD34^+ cells were isolated using EasySep™ Human Cord Blood CD34 Positive Selection Kit II (STEMCELL Technologies, Catalogue #17896). Obtained in this way the purity of CD34^+ cells is typically higher than 90%.
The wells of a 24-well plate were coated with StemSpan™ Lymphoid Differentiation Coating Supplement (STEMCELL Technologies, Catalogue #09925) and 5000 CD34^+ cells were plated per well. The CD34^+ cells were cultured for up to 14 days in StemSpan™ SFEM II (STEMCELL Technologies, Catalogue #09605, 09655) supplemented with Lymphoid Progenitor Expansion Supplement (STEMCELL Technologies, Catalogue #09915) with media changes every 3-4 days.
After 14 days in culture, CD34^+ cell-derived NK cell progenitors were harvested. 50,000 NK cell progenitors were plated per well of an uncoated tissue culture 24-well plate. The plated NK cell progenitors were cultured for up to two weeks in NK Cell Differentiation medium (i.e StemSpan™ SFEM II (STEMCELL Technologies, Catalog # 09605, 09655) supplemented with NK Cell Differentiation Supplement (STEMCELL Technologies, Catalogue #09950), and cultured for an additional two weeks with media changes every 3-4 days. UM729 or UM171 was added to supplemented NK Cell Differentiation Medium on days 14-28. On day 28 cells were harvested for analysis or downstream applications.
Harvested cells were stained and measured by flow cytometry for expression of the NK cell lineage marker CD56. Dead cells were excluded by light scatter profile and 7-AAD or DRAQ7 staining. The results in FIGS. 1 and 2 at condition “0” (plotted on the x-axis) indicate the frequency and yield of CD56^+ NK cells that result from experiments that follows the protocol described above but in the absence of UM171 or UM729. Cell counts were obtained using the NucleoCounter NC250. Yield was calculated by dividing the resulting cell number by the number of cells initially seeded. Yields of specific cell types were obtained by multiplying total yield by cell frequency.
Cells were cultured as described in Example 1, with the exception that the up to two week culture of NK cell progenitors (i.e. culture days 14-28) in NK Cell Differentiation medium occurred in the presence or absence of UM171 or UM729.
The effects of UM171 and UM729 were tested across a range of concentrations: 0 nM, 50 nM, 100 nM, 150 nM and 200 nM for UM171; and 0 μM, 0.25 μM, 0.5 μM, 1 μM, and 2 μM for UM729.
CD34^+ CB cells were isolated and cultured as described in Example 1 up to the day 14 time point. Day 14 NK cell progenitors were further cultured in NK Cell Differentiation medium, essentially as described in Example 1, except in the absence of an added pyrimidoindole compound but in the presence or absence of 5 μM CH223191.

[2] = 1 μM UM729, normalized to STD cultures, n=20
[3] = tested 0, 0.25, 0.5, 1, 2 μM, days 14-28

COC(=O)c1ccc2c(c1)[nH]c1ncnc(NCCCN3CCCCC3)c12 [UM729, methyl 4-((3-(piperidin-1-yl)propyl)amino)-9H-pyrimido[4,5-b]indole-7-carboxylate]
Frequency of CD56+ cells compared to absence of UM729 [1]: increased
Yield of CD56+ cells per 5×10^4 input PSC-derived CD34+ cells compared to absence of UM729 [1]: increased
Frequency of CD5+CD7+ cells compared to absence of UM729 (PSC-derived CD34+ cells): decreased
Yield of CD5+CD7+ cells per 5×10^4 input PSC-derived cells compared to absence of UM729 (PSC-derived CD34+ cells): decreased
Frequency of CD56+ NK cells compared to cultures lacking UM729 (NK cell progenitors; 1 μM UM729, 14 days culture of NK cell progenitors, paired t-test p=0.017): increased significantly
Yield of CD56+ NK cells per input cell compared to cultures lacking UM729 (NK cell progenitors; 1 μM UM729, 14 days culture of NK cell progenitors, paired t-test p=0.032): increased significantly
Increase of average frequency of NK cells compared to culture conditions not including a pyrimidoindole compound (NK cell progenitors; [2]): ~ 30%
Increase of average yield of NK cells compared to culture conditions not including a pyrimidoindole compound (NK cell progenitors; [2]): 2 fold
Concentration at which frequency of CD56+ NK cells appeared to be highest (NK cell progenitors; [3]): 1 µM
Concentration at which yield of CD56+ NK cells appeared to be highest (NK cell progenitors; [3]): 1 µM
